Assay results from publication PMC10213937 (Frontiers in Pharmacology, 2023).
Where two headings read alike, the source gives them in different places.

Tests used:
[1] = Stability in rat blood plasma (HPLC-MS/MS validation); conditions: n = 5
[2] = Plasma concentrations of ATO, metabolites and VOR in patients (HPLC-MS/MS); type: in vivo, human; design: Concentration in human blood samples: unit not given here; conditions: for Concentration in human blood samples: n = 3; for Decrease of metabolite concentration in the VOR group: VOR + ATO vs ATO alone
Source text: The experimental procedures were approved by the Ethics Committee of Shenzhen Hospital of Southern Medical University, and conducted in accordance with the Declaration of Helsinki (No. NYSZYYEC20180017). Subjects were selected from patients seen in the Department of Critical Care Medicine of Shenzhen Hospital of Southern Medical University, who were diagnosed with fungal infections complicated by cardiovascular and cerebrovascular diseases. Written informed consent was obtained from three patients aged 20-55 years. […] All procedures followed the ethical principles of the World Medical Association (WMA) Declaration of Helsinki and were approved by the Medical Ethics Committee of Shenzhen Hospital. […] Prelude […] The injection volume is 2 μL.

CYP3A [3] = assay: in vitro; conditions: rat, microsomes
ABCC2 = ABCC2 (Homo sapiens, UniProt Q92887); assay: ATO uptake/transport in cell transport models, ABCC2; type: cell-based; conditions: ATO as substrate, MK571 20 μM
CYP3A [4] = assay: Inhibition by VOR of ATO metabolism in rat liver microsomes; type: in vitro ADME; conditions: pH 7.4, probe atorvastatin (ATO), 2 μM
Description: The incubations were performed in duplicate.

[5] = rat
[6] = Pharmacokinetic interaction study in rats, Study II: VOR with or without ATO; type: in vivo; conditions: male, Sprague-Dawley, rat, plasma, po, 20 mg/kg; for AUC(0-t): read-out: AUC0–24h
Description: Considering the clinical dosage of each drug and the dose equivalence between rats and human subjects, the corresponding quantity of drug powder was taken and resuspended with normal saline to prepare the drug-containing administration solution before treatment.
Treatment of the blood plasma: 40 µL of blood plasma was mixed with 10 µL of internal standard working solution (500 ng/ml) and acidified with 100 µL CH3COONa (0.1 mol/L). After the methyl tert-butyl (1 ml) was added, the mixture was vortexed for 5 min and centrifuged at 3000 r/min for 10 min at 4°C. The supernatant was removed into another 10 ml conical glass tube and dried in a rotary evaporator at 45°C. The residue was redissolved in 100 µL methanol and vortexed for 1 min, followed by HPLC-MS/MS analysis.
A Thermo Scientific™ TSQ Quantiva™ triple-stage quadrupole mass spectrometer (Thermo Fisher Scientific, MA, USA) equipped with a Thermo Scientific™ OptaMax™ NG ion source was used for the experiments. Prelude SPLC™ System samples, pretreatment technology (TurboFlow Eddy current purification), and a Thermo Scientific liquid chromatography system were also connected to the mass spectrometer. The HPLC conditions were as follows: column, Thermo Hypersil Gold C18 column (2.1 × 100 mm, 1.9 μm), column temperature maintained at 40 °C; TurboFlow column, Thermo Cyclone TM-P (0.5 × 50 mm) (ThermoFisher Scientific, MA, USA). The injection volume is 2 μL.
The analytes were quantified by selective reaction monitoring (SRM) that used heating electrospray ionization (H-ESI) in the positive ion mode. The main working parameters of the mass spectrometry were regulated as follows: ion spray voltage, 3 kV; capillary temperature, 350°C; sheath gas (N2) flow, 45 Arb; auxiliary gas (N2) flow, 10 Arb; and collision gas (Ar) flow, 2 mTorr. […] Thermo Scientific™ Pinpoint™ software version 1.3 (ThermoFisher Scientific, MA, USA) was used for data acquisition.
The blood samples (0.2 ml aliquots) were collected after taking a single dose of the test drug, which was the same as described in Study I. The blood samples were preserved on ice for further processing; after centrifuging at 4000 rpm for 5 min, the plasma samples were obtained and stored at −80°C until further analysis was performed. […] Non-compartmental pharmacokinetic analysis of plasma data was conducted using DAS (2.0 version, BioGuider Co., Shanghai, China) to calculate the parameters in the pharmacokinetic study.

[7] = 24 h at 25℃, nominal 0.05 ng/mL
[8] = three freeze-thaw cycle (−80℃/25℃), nominal 0.05 ng/mL
[9] = three freeze-thaw cycle (−80℃/25℃), nominal 5 ng/mL
[10] = three freeze-thaw cycle (−80℃/25℃), nominal 80 ng/mL
[11] = ATO 20 mg alone, 0 h after taking ATO
[12] = ATO 20 mg alone, 1 h after taking ATO
[13] = ATO 20 mg alone, 2 h after taking ATO
[14] = ATO 20 mg alone, 12 h after taking ATO
[15] = ATO 20 mg alone, 24 h after taking ATO
[16] = VOR + ATO (VOR iv 6 mg/kg day 1, 4 mg/kg days 2–3), 0 h after taking ATO
[17] = first of four printed values (1 h by Table 1)
[18] = fourth of four printed values (24 h by Table 1)
[19] = second of four printed values (2 h by Table 1)
[20] = third of four printed values (12 h by Table 1)
[21] = VOR + ATO, 1 h after taking ATO
[22] = VOR + ATO, 2 h after taking ATO
[23] = VOR + ATO, 12 h after taking ATO
[24] = VOR + ATO, 24 h after taking ATO
[25] = ATO 2 mg/kg + VOR 20 mg/kg oral

Sequence of ABCC2 (Q92887 whole entry): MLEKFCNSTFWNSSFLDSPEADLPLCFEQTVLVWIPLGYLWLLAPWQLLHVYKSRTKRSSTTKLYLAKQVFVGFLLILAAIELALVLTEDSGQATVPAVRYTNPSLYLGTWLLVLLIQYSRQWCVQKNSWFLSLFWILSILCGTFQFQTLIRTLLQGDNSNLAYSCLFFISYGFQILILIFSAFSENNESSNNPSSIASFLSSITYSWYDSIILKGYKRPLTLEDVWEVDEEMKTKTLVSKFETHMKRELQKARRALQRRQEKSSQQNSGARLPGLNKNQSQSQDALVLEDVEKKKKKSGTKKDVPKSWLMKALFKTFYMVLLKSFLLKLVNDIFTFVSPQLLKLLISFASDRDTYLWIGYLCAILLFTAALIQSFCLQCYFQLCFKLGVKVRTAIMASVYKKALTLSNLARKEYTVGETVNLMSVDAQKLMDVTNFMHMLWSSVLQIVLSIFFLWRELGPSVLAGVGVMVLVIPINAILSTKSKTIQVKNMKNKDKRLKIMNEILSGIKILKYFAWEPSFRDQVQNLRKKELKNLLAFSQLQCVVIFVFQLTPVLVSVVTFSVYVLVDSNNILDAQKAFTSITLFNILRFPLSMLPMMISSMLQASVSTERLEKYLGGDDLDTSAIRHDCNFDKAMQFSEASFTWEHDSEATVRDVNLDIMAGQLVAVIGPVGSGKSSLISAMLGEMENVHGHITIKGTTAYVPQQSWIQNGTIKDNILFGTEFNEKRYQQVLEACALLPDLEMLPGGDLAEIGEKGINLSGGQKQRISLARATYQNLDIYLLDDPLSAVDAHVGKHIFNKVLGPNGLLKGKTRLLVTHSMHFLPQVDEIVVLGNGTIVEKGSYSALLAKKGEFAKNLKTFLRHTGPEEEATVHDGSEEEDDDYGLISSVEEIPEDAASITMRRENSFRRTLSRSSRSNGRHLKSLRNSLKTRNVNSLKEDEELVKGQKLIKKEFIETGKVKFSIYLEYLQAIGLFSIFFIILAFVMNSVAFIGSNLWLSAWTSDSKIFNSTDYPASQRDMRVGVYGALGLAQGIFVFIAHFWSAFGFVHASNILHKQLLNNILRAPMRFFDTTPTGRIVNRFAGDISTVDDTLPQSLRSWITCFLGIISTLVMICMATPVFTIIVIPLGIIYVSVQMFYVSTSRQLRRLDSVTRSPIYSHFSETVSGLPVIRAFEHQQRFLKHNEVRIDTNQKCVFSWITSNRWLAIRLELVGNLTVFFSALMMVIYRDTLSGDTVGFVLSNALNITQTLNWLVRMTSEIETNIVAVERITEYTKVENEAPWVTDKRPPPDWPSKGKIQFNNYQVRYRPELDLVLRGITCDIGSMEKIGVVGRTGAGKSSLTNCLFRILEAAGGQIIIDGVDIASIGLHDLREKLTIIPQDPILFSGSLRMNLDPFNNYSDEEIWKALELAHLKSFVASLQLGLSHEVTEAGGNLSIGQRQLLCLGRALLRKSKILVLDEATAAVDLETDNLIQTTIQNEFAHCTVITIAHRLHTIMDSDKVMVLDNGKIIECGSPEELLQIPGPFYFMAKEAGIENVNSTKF

| SMILES | Stability, %RE [1, 7] | Stability, measured concentration (mean ± SD) [1, 7] | Stability, %RE ([1]; 24 h at 25℃, nominal 5 ng/mL) | Stability, measured concentration (mean ± SD) ([1]; 24 h at 25℃, nominal 5 ng/mL) | Stability, %RE ([1]; 24 h at 25℃, nominal 80 ng/mL) | Stability, measured concentration (mean ± SD) ([1]; 24 h at 25℃, nominal 80 ng/mL) | Stability, %RE [1, 8] | Stability, measured concentration (mean ± SD) [1, 8] | Stability, %RE [1, 9] | Stability, measured concentration (mean ± SD) [1, 9] | Concentration in human blood samples [2, 11] | Concentration in human blood samples [2, 12] | Concentration in human blood samples [2, 13] | Concentration in human blood samples [2, 14] | Concentration in human blood samples [2, 15] | Concentration in human blood samples [2, 16] | Concentration in human blood samples [2, 21] | Concentration in human blood samples [2, 22] | Concentration in human blood samples [2, 23] | Concentration in human blood samples [2, 24] | also measured |
| --- | --- | --- | --- | --- | --- | --- | --- | --- | --- | --- | --- | --- | --- | --- | --- | --- | --- | --- | --- | --- | --- |
| CC(C)c1c(C(=O)Nc2ccc(O)cc2)c(-c2ccccc2)c(-c2ccc(F)cc2)n1CC[C@@H](O)C[C@@H](O)CC(=O)O [4-Hydroxy-ATO, 4-hydroxy-ATO] | -7.78% | 0.045 ± 0.007 ng/mL | -2.31% | 4.625 ± 0.337 ng/mL | -9.07% | 73.581 ± 6.587 ng/mL | -9.87% | 0.044 ± 0.005 ng/mL | -1.25% | 4.501 ± 0.411 ng/mL | 4.073 ± 2.168 | 15.510 ± 1.283 | 14.783 ± 3.501 | 6.863 ± 1.586 | 6.103 ± 2.640 | 5.047 + 0.882 | 8.150 + 1.219 | 6.537 + 0.304 | 3.717 + 0.807 | 3.563 + 1.830 | Stability, %RE [1, 10]: -9.69%; Stability, measured concentration (mean ± SD) [1, 10]: 72.334 ± 7.338 ng/mL; Decrease of metabolite concentration in the VOR group [2, 17]: 47.45%; Decrease of metabolite concentration in the VOR group [2, 18]: 41.62%; Decrease of metabolite concentration in the VOR group [2, 19]: 55.78%; Decrease of metabolite concentration in the VOR group [2, 20]: 45.85% |
| C[C@@H](c1ncncc1F)[C@](O)(Cn1cncn1)c1ccc(F)cc1F [VOR, Voriconazole] | – | – | – | – | – | – | – | – | – | – | 0.007 + 0.012 | 0.000 + 0.000 | 0.007 + 0.012 | 0.000 + 0.000 | 0.007 + 0.012 | 2.870 + 0.325 | 2.673 + 0.465 | 2.563 + 0.122 | 2.780 + 0.317 | 2.820 + 0.540 | IC50 (CYP3A [3]): 49.8 µM; Effect on the activity (efflux) of ABCC2 (ABCC2): no effect; IC50 at 20 min (CYP3A [4]): 45.9 µM; Stability, measured concentration (mean ± SD) ([5]; 0.05 ng/mL): 0.045 ± 0.004 ng/mL; Stability, measured concentration (mean ± SD) ([5]; 5 ng/mL): 4.558 ± 0.318 ng/mL; Stability, measured concentration (mean ± SD) ([5]; 80 ng/mL): 75.238 ± 5.338 ng/mL; Stability, measured concentration (mean ± SD) ([5]; 24 h, 0.05 ng/mL): 0.048 ± 0.004 ng/mL; Stability, measured concentration (mean ± SD) ([5]; 24 h, 5 ng/mL): 4.962 ± 0.301 ng/mL; Stability, measured concentration (mean ± SD) ([5]; 24 h, 80 ng/mL): 79.264 ± 5.131 ng/mL; AUC(0-inf) [6, 25]: 3280 ± 835 ng·h/mL; Cmax [6, 25]: 826 ± 166 ng/mL; Tmax [6, 25]: 0.917 ± 0.204 h; half-life [6, 25]: 2.6 ± 0.419 h; AUC(0-t) [6, 25]: 3250 ± 862 ng·h/mL; AUC(0-inf) ([6]; NS + VOR 20 mg/kg oral): 3640 ± 798 ng·h/mL; Cmax ([6]; NS + VOR 20 mg/kg oral): 829 ± 246 ng/mL; Tmax ([6]; NS + VOR 20 mg/kg oral): 1.25 ± 0.612 h; half-life ([6]; NS + VOR 20 mg/kg oral): 2.58 ± 0.317 h; AUC(0-t) ([6]; NS + VOR 20 mg/kg oral): 3630 ± 802 ng·h/mL; MRT inf ([6]; NS + VOR 20 mg/kg oral, read-out: MRT0-∞): 3.53 ± 0.66 h |
| CC(C)c1c(C(=O)Nc2ccccc2O)c(-c2ccccc2)c(-c2ccc(F)cc2)n1CCC(O)CC(O)CC(=O)O (centres unmarked) [2-Hydroxy-ATO, 2-hydroxy-ATO] | -0.35% | 0.047 ± 0.005 ng/mL | -8.25% | 4.538 ± 0.424 ng/mL | -6.25% | 76.114 ± 5.314 ng/mL | -8.35% | 0.044 ± 0.004 ng/mL | -1.35% | 4.554 ± 0.568 ng/mL | 3.401 ± 1.028 | 21.602 ± 1.929 | 15.196 ± 1.779 | 10.106 ± 2.969 | 3.950 ± 1.867 | 4.239 + 2.160 | 5.543 + 2.235 | 10.100 + 1.896 | 4.475 + 2.687 | 2.200 + 1.184 | Stability, %RE [1, 10]: -10.28%; Stability, measured concentration (mean ± SD) [1, 10]: 72.580 ± 4.221 ng/mL; Decrease of metabolite concentration in the VOR group [2, 17]: 74.34%; Decrease of metabolite concentration in the VOR group [2, 18]: 44.30%; Decrease of metabolite concentration in the VOR group [2, 19]: 33.53%; Decrease of metabolite concentration in the VOR group [2, 20]: 55.72% |
| CN(C)C(=O)CCSC(SCCC(=O)O)c1cccc(/C=C/c2ccc3ccc(Cl)cc3n2)c1 (centres unmarked) [MK571] | – | – | – | – | – | – | – | – | – | – | – | – | – | – | – | – | – | – | – | – | Effect on the activity (efflux) of ABCC2 (ABCC2): reversed the efflux |
